Reference: patent US20250154140A1 (Sunnybrook Research Institute, priority 2022, published 2025)

Key:
[1] = tested on: diverse panel of 58 kinases; assay: Kinase panel (Eurofins KinaseProfiler); assay type: biochemical; conditions: 1 uM
Protocol: For the kinase panel, % inhibition was measured using standardized assay conditions at the KinaseProfiler service (Eurofins Pharma Discovery Services). Compounds were sent for testing as dry powder.

BAX = BAX (Homo sapiens, UniProt Q07812); assay: 1H-15N HSQC NMR chemical shift perturbations with 15N-labelled BAX; assay type: binding; parameters: NMR experiments used full-length WT BAX at a concentration of 200 μM; made in house; host or cells: Escherichia coli BL21-AI (minimal media, 15N); conditions: 200 uM BAX
Protocol: All experiments were performed using an independent sample for each measurement and were DMSO matched to account for environment changes due to the solvent. ^15N-labeled BAX was prepared as described above in 50 mM potassium phosphate pH 6, 50 mM NaCl, and 10% D2O. Samples were mixed before loading 40 μL in a 1.7 mm sample tube. […] NMR experiments used full-length WT BAX at a concentration of 200 μM. Experiments were conducted on a 600 MHz Bruker Avance magnet at 25° C. Chemical shift perturbations (CSP) were calculated in CCPNMRv3 using an automated analysis, where all peaks were matched to their extrema and calculated using the equation: […]
In the CSP equation above, α denotes the relative weighting of chemical shift changes of the ^15N relative to ^1H nuclei. ΔδHX and ΔδNx are the observed changes of the proton and nitrogen chemical shifts for residue x, respectively. As a note, all amino acid positions on the HSQC were manually inspected to use the extrema of the nearest identified peak. The absence of a bar in the CSP graph indicates no chemical shift, the presence of a proline, or a missing residue peak not used for analysis. Significance threshold was calculated as the average of chemical shifts across all residues plus the standard deviation. […]

BAX, sequence (Q07812 whole entry): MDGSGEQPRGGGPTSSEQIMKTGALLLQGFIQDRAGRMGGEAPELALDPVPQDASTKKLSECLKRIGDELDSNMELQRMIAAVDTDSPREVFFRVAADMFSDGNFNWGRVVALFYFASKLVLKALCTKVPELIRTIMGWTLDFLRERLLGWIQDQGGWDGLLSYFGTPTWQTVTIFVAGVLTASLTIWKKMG

## COc1cc2ccnc(Nc3ccc(F)c(Cl)c3)c2cc1NC(=O)CCCN1CCCCC1 [Compound I-1, N-(1-((3-chloro-4-fluorophenyl)amino)-6-methoxyisoquinolin-7-yl)-4-(piperidin-1-yl)butanamide]
[1]
  activity across kinase panel (percent kinase inhibition): minimal activity
BAX
  binding to BAX (chemical shift perturbations): bind the cytosolic conformation of BAX
